Measured values: patent US5155121A, “Phenylsulphonamide substituted pyridinealkene- and aminooxyalkanecarboxylic acid derivatives” (Bayer Aktiengesellschaft, priority 1990, dated 1992)

What follows are molecules tested on platelet aggregation (assay: Platelet aggregation-inhibiting action (TAI), collagen-induced, turbidometric, in platelet-rich citrate plasma). Conditions: Homo sapiens, 0.1 h, range of the minimum effective concentration, PRP from healthy donors, 37° C., 6 minutes, read-out: TAI threshold concentration.
Format: cell-based
Description: Blood from healthy donors of both sexes was used for the determination of the platelet aggregation-inhibiting action. As an anticoagulant, 9 parts of blood were admixed to one part of 3.8% strength aqueous sodium citrate solution. Platelet-rich citrate plasma (PRP)^1 is obtained from this blood by means of centrifugation (Jurgens/Beller, Klinische Methoden der Blutgerinnungsanalyse (Clinical Methods of Blood Coagulation Analysis); Thieme Verlag, Stuttgart, 1959).
For these investigations, 0.8 ml of (PRP)^1 and 0.1 ml of the active compound solution were preincubated in a water bath at 37° C. The platelet aggregation was then determined by the turbidometric method (Born, G.V.R., J. Physiol. (London), 162, 67, 1962) in an aggregometer at 37° C. (Therapeutische Berichte 47, 80-86, 1975). To this end, 0.1 ml of collagen, an aggregation-inducing agent, was added to the preincubated sample. The change in the optical density in the sample of the (PRP) was recorded during a period of 6 minutes and the result was determined after 6 minutes. To do this, the percentage inhibition was calculated compared to the control.
The range of the minimum effective concentration was given as the threshold concentration.
For `O=C(O)CCCCCCON=C(c1cccnc1)c1cccc(NS(=O)(=O)c2ccc(Cl)cc2)c1` (mixture of isomers) [XIII, (E/Z)-7-[[[3-Pyridinyl-3-(4-chlorophenylsulphonamido)phenyl]methylene]iminooxy]heptane-carboxylic acid], the minimal effective concentration was > 10 µg/mL. `O=C(O)CCCCC=C(c1cccnc1)c1cccc(NS(=O)(=O)c2ccc(Cl)cc2)c1` (mixture of isomers) [Example XV] showed a minimal effective concentration of 3 to 10 µg/mL. In the case of `O=C(O)CCCCCON=C(c1cccnc1)c1cccc(NS(=O)(=O)c2ccc(Cl)cc2)c1` [XII], the minimal effective concentration is reported as 1 to 3 µg/mL. In the case of `O=C(O)CCCCON=C(c1cccnc1)c1cccc(NS(=O)(=O)c2ccc(F)cc2)c1` [II], the minimal effective concentration is reported as 1 to 3 µg/mL. In the case of `O=C(O)CCCCON=C(c1cccnc1)c1cccc(NS(=O)(=O)c2ccc(Cl)cc2)c1` (mixture of isomers) [Example I, (E/Z)-5-[[[3-Pyridinyl-3-(4-chlorophenylsulphonamido)phenyl]methylene]iminooxy]pentanecarboxylic acid], the minimal effective concentration is reported as 0.3 to 1 µg/mL. With `O=C(O)CCCCCC(c1cccnc1)c1cccc(NS(=O)(=O)c2ccc(Cl)cc2)c1` (stereo not drawn) [XXVI] the minimal effective concentration was 0.1 to 0.3 µg/mL.
